Patent US10646600B2, “HER2 polypeptides useful for imaging and monitoring tumors and cancers” (GE HEALTHCARE LIMITED, priority 2013, dated 2020)
“Also recorded” adds a separate entry of the source. Like-named read-outs stand apart in the source and are kept apart here.

Experiments:
rhesus HER2 = test: Surface Plasmon Resonance, rhesus HER2-ECD-Fc; format: binding
Method: To characterize the affinity of [^19F]GE-226[SEQ ID NO 1] to HER2 protein, Surface Plasmon Resonance studies were conducted. Human, rhesus and rat HER2-ECD-Fc (SINO Biological, Beijing, China, Cat. Nr: 10004-H02H, 90020-K02H, and 80079-R02H), as well as human HER2-ECD-Fc-6×His (R&D Systems, Minneapolis, Minn., Cat. Nr: 1129-ER) and p95HER2 ECD-Fc-6×His (Syngene, Cambridge, United Kingdom) were diluted with 50 mM sodium acetate pH 4.5 (Biacore (GE Healthcare, Buckinghamshire, UK) coupling buffer) to a final concentration of 10 μg/mL. Antigen coupling to Biacore sensor chip CMS (Cat. Nr: BR-1005-30) was done according to amine coupling protocol from the instrument manual (Syngene). HBS-EP buffer (10 mM HEPES pH 7.4, 150 mM NaCl, 3 mM EDTA and 0.005% surfactant P20; GE Healthcare, Little Chalfont, United Kingdom, Cat. Nr: BR-1006-69) was used as running buffer and as solvent for the substances. The affinity studies were performed using a Biacore T100 (GE Healthcare). [^19F]GE-226 was diluted in HBS-EP buffer to 50 nM, 25 nM, 12.5 nM, 6.25 nM, 3.125 nM, 1.56 nM, 0.78 nM, 0.39 nM, 0.195 nM, 0.097 nM, 0.049 nM and 0 nM. The flow cells of the first chip comprised of blank, human HER2-ECD-Fc-6×His, p95HER2-ECD-Fc-6×His batch I and p95HER2-ECD-Fc-6×His batch II. The flow cells on the second chip contained blank, human HER2-ECD-Fc, rhesus HER2-ECD-Fc and rat HER2 ECD-Fc. The immobilization of the proteins was validated with protein-A (Sigma-Aldrich, St. Louis, Mo., Cat. Nr: P6031) and anti-human IgG antibody (Perkin Elmer, Waltham, Mass., Cat. Nr: NEF803001EA). [^19F]GE-226[SEQ ID NO 1] was pumped in duplicate over cells in randomized order for 60 sec at 50 μL/min flow rate followed by 120 sec of HBS-EP to monitor dissociation. This was followed by regeneration of the chip with 50 mM sodium hydroxide for 30 sec at 30 μL/min flow rate followed by 60 sec run of HBS-EP to stabilize the surface. Kinetic calculations were performed using Langmuir 1:1 binding model and simultaneous calculation of association and dissociation phase.

[1] = tested on: HER2 negative and p95HER2 transfected cell lines; test: In vitro uptake assay, HER2 negative and p95HER2 transfected cell lines; format: cell-based, human; details: across all HER2 negative and p95HER2 transfected lines, 60 minutes
From the text: (§1) MCF7-vector (piRES), MCF7-p95HER2 and MCF7-HER2 cells were a kind gift of Jose Baselga's laboratory (17). MCF7 clones, MDA-MB-231 (ATCC, Manassas, Va.), MDA-MB-361 (Sigma-Aldrich), SKBR-3 (ATCC) and SKOV-3 (Sigma-Aldrich) cells were maintained in DMEM. AGS (Sigma-Aldrich), HGC-27 (Sigma-Aldrich), NCI-N87 (ATCC) and OE-33 (ATCC) cells were maintained in RPMI (Sigma-Aldrich). A431 cells (Sigma-Aldrich) were maintained in MEM Eagle medium (Sigma-Aldrich). Growth media were supplemented with 10% FCS (Lonza, Basel, Switzerland), glutamine and antibiotics (both Invitrogen, Paisley, United Kingdom). A431 cells were additionally supplemented with 1% non-essential amino acids. All cells were cultured at 37° C. in a humidified atmosphere containing 5% CO2.
(§2) For baseline uptake in HER2 positive or negative lineages, 3×10^5 cells were seeded in complete media in 12-well plates (Corning, Tewksbury Mass.) and allowed to recover overnight. Cells were washed twice with serum-free medium and pulsed with 370 KBq in 500 μL serum-free medium for one h. […]
(§3) Cells were washed with PBS, trypsinized, neutralized with complete medium and centrifuged. […] The radioactivity of 100 μL lysate was counted on a Packard Cobra II gamma counter (Perkin Elmer). Radioactivity was normalized to applied radioactivity and protein content, which was determined for each sample by BCA assay (Pierce, Rockford, Ill.). […]

MDA-MB-361 = test: Biodistribution, MDA-MB-361 tumor; format: in vivo, mice; details: 60 min
From the text: (§4) Mice were sacrificed at different time points by exsanguination.

MCF7-p95HER2 = test: Biodistribution, MCF7-p95HER2 tumor; format: in vivo, mice; details: 60 min
From the text: as §4

HER2 positive cell lines = test: In vitro uptake assay, HER2 positive cell lines; format: cell-based, human
From the text: as §1, §2, §3

MCF7-HER2 = test: Biodistribution, MCF7-HER2 tumor; format: in vivo, mice; details: 60 min
From the text: as §4

Substance | Off-rate koff (rhesus HER2; Rhesus HER2) [s⁻¹] | On-rate kon (rhesus HER2; Rhesus HER2, Langmuir 1:1 binding model) [M⁻¹ s⁻¹] | Kd (rhesus HER2; Rhesus HER2, read-out: Affinity KD) [nM] | binding to rhesus HER2 (words) (rhesus HER2; listed as GE-226) | binding to rhesus HER2 (words) (rhesus HER2; listed as [^19F]-GE-226) | Kd (rhesus HER2; rhesus HER2, text, read-out: KD) [nM] | background uptake [1] | Tissue uptake, MDA-MB-361 (MDA-MB-361) [% ID/g tissue] | Tissue uptake, MCF7-p95HER2 (MCF7-p95HER2) [% ID/g tissue] | dependence of uptake/binding on EGFR (HER2 positive cell lines) | Tissue uptake, MCF7-HER2 (MCF7-HER2) [% ID/g tissue]
[^19F]GE-226: cold unlabeled non-radioactive 19F analogue of the tracer, used for SPR and blocking | 0.000425 | 6.37e+06 | 0.0667 | binds with high affinity | high affinity binding | 0.067 | – | – | – | – | –
[^18F]GE-226: HER2-binding 18F-radiolabelled Affibody molecule ZHER2:2891 | – | – | – | – | – | – | 1.2±0.5 % applied radioactivity per mg protein | 17.00 ± 2.98 | 6.55 ± 0.13 | independent of presence of other targets like EGFR; also recorded: independent of expression | 11.06 ± 3.31
